Test results: patent US20020151734A1, “12-HETrE analogs and methods of use thereof” (priority 2001, published 2002)
*1 amine or outer side, *2 acyl side, *3 side chain or, on linkers, in order; H or OH if unused. Where a SMILES comes first, the peptide text is derived from it. Bridges are numbered along the chain shown (N, C = ends). Roman numbers before positions name the chains, in order. [ ]: non-standard residue; d: D form. Actinocin(9to1) = Cc1c2oc3c(C)ccc(C(=O)[*:1])c3nc-2c(C(=O)[*:2])c(N)c1=O; NMeV = CN[C@H](C(=O)O)C(C)C; Sar = CNCC(=O)O

Experiments:
RLME cells = test: Inhibition of [^3H]12(R)-HETrE binding to RLME cells; conditions: analog 1 μM; for % Inhibition of [^3H]12(R)-HETrE binding: [^3H]12(R)-HETrE at 10 nM, RLME cells; for Result (agonist or antagonist): classed from % inhibition of [^3H]12(R)-HETrE binding
Procedure: Alternatively, the antagonistic or agonistic activity of 12-HETrE analogs may be measured by determining the percentage of inhibition of [^3H]12(R)-HETrE binding at 10 nM to RLME cells. Generally, inhibition of [^3H]12(R)-HETrE binding greater than 50% is indicative of agonists and inhibition lower than 50% is indicative of antagonists.

VEGF mRNA = VEGF mRNA levels in microvessel endothelial (RLMVE) cells by slot blot analysis; assay type: cell-based; conditions: for effect on 12(R)-HETrE-induced VEGF mRNA/expression: co-incubation with 12(R)-HETrE
Procedure: The antagonistic or agonistic activity of 12-HETrE analogs may be measured by measuring increases in vascular cadothelial growth factor (VEGF) mRNA following incubation of microvessel endothelial cells (RLMVE cells) with 12(R)-HETrE and other compounds followed by slot blot analysis, as described in the Examples. […] In this way the 12-HETrE analogs 8-(R) and 8-(S) were determined to be 12(R)-HETrE agonists.
12(R)-HETrE increased VEGF mRNA levels in a time-dependent manner. A 5-fold increase over the control levels was observed 45 min after addition of 12(R)-HETrE. These levels gradually declined to the control levels by 48 h. […] 12(R)-HETrE increased VEGF mRNA in a concentration-dependent manner with 0.1 nM having the maximal effect.
Human VEGF cDNA was used as a probe for slot blot analysis to measure increases in VEGF mRNA following incubation of RLMVE cells with 12(R)-HETrE and 12-HETrE analogs. To measure agonistic activity compounds were added to the incubation medium at concentration of 0.1, 1, and 10 nM and their effect on VEGF mRNA levels after 45 min incubation was measured in comparison to that of 12(R)-HETrE at the same concentration. To measure antagonistic activity, compounds at the above concentrations were added with 0.1 nM 12(R)-HETrE and 45 min later RNA extracted samples were processed for slot blot analysis.

CCCCC/C=C\C[C@@H](O)CC/C=C\C/C=C\CCCC(=O)O [12(S)-HETrE, 12(S)-(5Z,8Z,14Z)-12-hydroxyeicosa-5,8,14-trienoic acid, reference compound]
% Inhibition of [^3H]12(R)-HETrE binding (RLME cells): 62.4% | Result (agonist or antagonist) (RLME cells): Agonist (inhibition of [^3H]12(R)-HETrE binding greater than 50% is indicative of agonists)

CCCCC/C=C\C[C@H](O)CC/C=C\C/C=C\COCC(=O)O [4-a-(R), (9(R)-Hydroxyheptadeca-2(Z),5(Z),11(Z)-trienyloxy)acetic acid]
% Inhibition of [^3H]12(R)-HETrE binding (RLME cells): 48.0% | Result (agonist or antagonist) (RLME cells): Antagonist (inhibition lower than 50% is indicative of antagonists)

CCCCCCCC[C@@H](O)CC/C=C\C/C=C\CCCC(=O)O [6-(R), 12(R)-Hydroxyeicosa-5(Z),8(Z)-dienoic acid]
% Inhibition of [^3H]12(R)-HETrE binding (RLME cells): 87.2% | Result (agonist or antagonist) (RLME cells): Agonist (inhibition of [^3H]12(R)-HETrE binding greater than 50% is indicative of agonists)

CCCCC/C=C\C[C@@H](CC/C=C\C/C=C\CCCC(=O)O)OC [2-(R), 12(R)-Methoxyeicosa-5(Z),8(Z),14(Z)-trienoic acid]
% Inhibition of [^3H]12(R)-HETrE binding (RLME cells): 38.6% | Result (agonist or antagonist) (RLME cells): Antagonist (inhibition lower than 50% is indicative of antagonists)

CCCCC/C=C\C[C@H](CC/C=C\C/C=C\CCCC(=O)O)OC [2-(S), 12(S)-Methoxyeicosa-5(Z),8(Z),14(Z)-trienoic acid]
% Inhibition of [^3H]12(R)-HETrE binding (RLME cells): 34.2% | Result (agonist or antagonist) (RLME cells): Antagonist (inhibition lower than 50% is indicative of antagonists)

CCCCC/C=C\C[C@H](O)CC/C=C\C/C=C\CCCC(=O)NS(C)(=O)=O [1-a-(R), N-(Methylsulfonyl)-12(R)-hydroxyeicosa-5(Z),8(Z),14(Z)-trienamide]
% Inhibition of [^3H]12(R)-HETrE binding (RLME cells): 62.6% | Result (agonist or antagonist) (RLME cells): Agonist (inhibition of [^3H]12(R)-HETrE binding greater than 50% is indicative of agonists)

C[C@@H]1C[C@@H]([C@H](O)CC2CC(=O)NC(=O)C2)C(=O)[C@@H](C)C1 [cycloheximide]
effect on 12(R)-HETrE-induced VEGF mRNA/expression (VEGF mRNA): did not affect

Cc1c2oc3c(C)ccc(C(=O)N[C@@H]4C(=O)N[C@H](C(C)C)C(=O)N5CCC[C@H]5C(=O)N(C)CC(=O)N(C)[C@@H](C(C)C)C(=O)O[C@@H]4C)c3nc-2c(C(=O)N[C@@H]2C(=O)N[C@H](C(C)C)C(=O)N3CCC[C@H]3C(=O)N(C)CC(=O)N(C)[C@@H](C(C)C)C(=O)O[C@@H]2C)c(N)c1=O [actinomycin D] (I: T[dV]P[Sar][NMeV] / II: T[dV]P[Sar][NMeV]; ester I:1-I:C, II:1-II:C; linker I:N-II:N via Actinocin(9to1))
effect on 12(R)-HETrE-induced VEGF mRNA/expression (VEGF mRNA): abolished

CCCCCCCC[C@H](O)CC/C=C\C/C=C\CCCC(=O)O [6-(S), 12(S)-Hydroxyeicosa-5(Z),8(Z)-dienoic acid]
% Inhibition of [^3H]12(R)-HETrE binding (RLME cells): 73.0% | Result (agonist or antagonist) (RLME cells): Agonist (inhibition of [^3H]12(R)-HETrE binding greater than 50% is indicative of agonists)

CCCCCC=CC[C@H](O)CCC=CCC=CCCCC(=O)O [12(R)-HETrE, 12(R)-hydroxy-5,8,14-eicosatrienoic acid]
% Inhibition of [^3H]12(R)-HETrE binding (RLME cells): 69.8% | time by which VEGF mRNA levels declined to the control levels (VEGF mRNA; 0.1 nM): ≤ 48 h | increase in VEGF mRNA over the control levels (VEGF mRNA; 0.1 nM, 45 min after addition): 5 fold | concentration having the maximal effect on VEGF mRNA (VEGF mRNA; concentration-dependent increase): 0.1 nM

CCCCC/C=C\C[C@@H](O)CC/C=C\CCCCCCC(=O)O [5-(S), 12(S)-Hydroxyeicosa-8(Z),14(Z)-dienoic acid]
% Inhibition of [^3H]12(R)-HETrE binding (RLME cells): 54.5% | Result (agonist or antagonist) (RLME cells): Agonist (inhibition of [^3H]12(R)-HETrE binding greater than 50% is indicative of agonists)

CCCCC/C=C\C[C@H](O)CCCCC/C=C\CCCC(=O)O [7-(R), 12(R)-Hydroxy-eicosa-5(Z),14(Z)-dienoic acid]
% Inhibition of [^3H]12(R)-HETrE binding (RLME cells): 88.7% | Result (agonist or antagonist) (RLME cells): Agonist (inhibition of [^3H]12(R)-HETrE binding greater than 50% is indicative of agonists)

CCCCC/C=C\C[C@H](O)CC/C=C\CC#CCCCC(=O)O [3-(R), 12(R)-hydroxyeicosa-8(Z),14(Z)-dien-5-ynoic acid]
% Inhibition of [^3H]12(R)-HETrE binding (RLME cells): 58.1% | Result (agonist or antagonist) (RLME cells): Agonist (inhibition of [^3H]12(R)-HETrE binding greater than 50% is indicative of agonists)

CCCCC/C=C\C[C@@H](O)CCCCC/C=C\CCCC(=O)O [7-(S), 12(S)-Hydroxyeicosa-5,(Z)14(Z)-dienoic acid]
% Inhibition of [^3H]12(R)-HETrE binding (RLME cells): 69.5% | Result (agonist or antagonist) (RLME cells): Agonist (inhibition of [^3H]12(R)-HETrE binding greater than 50% is indicative of agonists)

CCCCC/C=C\C[C@@H](O)CC/C=C\CC#CCCCC(=O)O [3-(S), 12(S)-Hydroxyeicosa-8(Z),14(Z)-dien-5-ynoic acid]
% Inhibition of [^3H]12(R)-HETrE binding (RLME cells): 23.6% | Result (agonist or antagonist) (RLME cells): Antagonist (inhibition lower than 50% is indicative of antagonists)

CCCCC/C=C\C[C@@H](O)CC/C=C\C/C=C\COCC(=O)O [4-a-(S)]
% Inhibition of [^3H]12(R)-HETrE binding (RLME cells): 24.3% | Result (agonist or antagonist) (RLME cells): Antagonist (inhibition lower than 50% is indicative of antagonists)

CCCCC/C=C\C[C@H](O)CC/C=C\CCCCCCC(=O)O [5-(R), 12(R)-Hydroxyeicosa-8(Z),14(Z)-dienoic acid]
% Inhibition of [^3H]12(R)-HETrE binding (RLME cells): 92.4% | Result (agonist or antagonist) (RLME cells): Agonist (inhibition of [^3H]12(R)-HETrE binding greater than 50% is indicative of agonists)

CCCCC/C=C\C[C@@H](O)CC/C=C\C/C=C\CCCC(=O)NS(C)(=O)=O [1-a-(S), N-(Methylsulfonyl)-12(S)-hydroxyeicosa-5(Z),8(Z),14(Z)-trienamide]
% Inhibition of [^3H]12(R)-HETrE binding (RLME cells): 33.3% | Result (agonist or antagonist) (RLME cells): Antagonist (inhibition lower than 50% is indicative of antagonists) | increase in VEGF mRNA (densitometry) (VEGF mRNA; 1 nM, 45 min incubation): 5 fold | agonistic activity by VEGF mRNA increase (VEGF mRNA; slot blot analysis): significant agonistic activity
